Source: ChEMBL document CHEMBL1153162, “Total synthesis and biological evaluation of methylgerambullone” (2010)

What was measured:
Conditions in all cases: Cavia porcellus
[1] = test system: Ileum; test: […] activity in longitudinal smooth muscle of guinea pig ileum assessed as inhibition of acetylcholine-induced contraction at 60 mg/L; assay type: functional
[2] = test system: Ileum; test: […] activity in longitudinal smooth muscle of guinea pig ileum assessed as inhibition of acetylcholine-induced contraction; assay type: functional, tissue-based
[3] = test system: Ileum; test: […] activity in longitudinal smooth muscle of guinea pig ileum assessed as inhibition of acetylcholine-induced contraction at 100 mg/L; assay type: functional
[4] = test system: Ileum; test: […] activity in longitudinal smooth muscle of guinea pig ileum assessed as inhibition of acetylcholine-induced contraction at 30 mg/L; assay type: functional

CC(C)=CC(=O)C/C(C)=C/COc1ccc(CCN(C)C(=O)/C=C/S(C)(=O)=O)cc1 [METHYLGERAMBULLONE]
inhibition at 60 µg/mL [1]: 70% | Activity [2]: Dose-dependent effect | inhibition at 100 µg/mL [3]: 78.7% | inhibition at 30 µg/mL [4]: 45.3%
